Data published in paper PMC7805408, “Filaggrin Polymorphisms and the Uptake of Chemicals through the Skin—A Human Experimental Study” (Environmental Health Perspectives, 2021).

Columns and labels:
[1] = test system: estrogen receptor 1, androgen receptor, and cytochrome P450 aromatase B; design: method as in Blüthgen et al. 2012; conditions: zebrafish, 84μg/L; ref Blüthgen et al. 2012; cited from earlier work
[2] = design: method as in Santamaria et al. 2020; conditions: ref Santamaria et al. 2020; cited from earlier work
[3] = design: method as in Okereke et al. 1993; conditions: rats; ref Okereke et al. 1993; cited from earlier work
[4] = Population toxicokinetic analysis of dermal absorption and disposition (three-compartment model, Monolix); format: in vivo, human; conditions: for Lag time (mean±SD): dermal absorption; for Lag time (mean±SD) / Absorption rate constant (mean±SD): unadjusted; for Absorption rate constant (mean±SD): dermal; for Rate constant K21 (mean ± SD): from the central to the peripheral compartment; for Rate constant K12 (mean ± SD): from the peripheral to the central compartment
Method: Dermal absorption and disposition were assessed by population toxicokinetic analysis. A three-compartment structural model representing skin and central and peripheral tissues was used (Figure 2). The skin compartment encompasses a lag time for skin penetration ( Tlag ) and an absorption rate constant ( ka ). Urinary excretion from the central compartment was described by an elimination rate constant ( ke ), and exchange between the central and peripheral compartments was described by two rate constants ( k12 and k21 ). All rate constants are first order.
Figure 2. Compartmental model used in the toxicokinetic analysis: lag time for skin penetration ( Tlag , h), first order skin absorption constant ( Ka , h-1), volume of central compartment (V, L), peripheral compartment (P) first order transfer rate constants ( k12 and k21 , h^−1 ), and first order elimination rate constant (k, h^−1 ).
The input data were the dermally applied dose (nmol) at time zero and the mid–time point (h) and the excretion rate (nmol/h) of each chemical in the urine samples. Subjects excluded from the AUC analysis were also excluded from the toxicokinetic analysis (one FLG null carrier and one wt carrier for oxybenzone).
The software Monolix (version 2019R2; Lixoft) was used to estimate the model parameters. The built-in statistical model consists of an observation model and an individual model based on the structural toxicokinetic model. The observational model was set to a normal distribution, and a residual error model included in the observational model was used as proposed by the software after initial analysis. A lognormally distributed random effect was added to all model parameters. Correlations between parameters were accounted for if proposed by the software. The different genotypes (FLG null/wt, and FLG null/wt CNV20–22/wt CNV23–24) were entered as categorical covariates.

[5] = ref http://www.popstoolkit.com/tools/HHRA/TDI_USEPA.aspx; cited from earlier work
[6] = test system: aryl hydrocarbon receptor; design: method as in Medjakovic et al. 2014; conditions: in vitro; ref Medjakovic et al. 2014; cited from earlier work
[7] = in vivo, po; cited from earlier work
[8] = ref https://efsa.onlinelibrary.wiley.com/doi/pdf/10.2903/j.efsa.2006.61r; cited from earlier work
[9] = FLG null carriers, null/CNV grouping
[10] = FLG null, null vs wt grouping (Table S4)
[11] = FLG null, null/CNV grouping (Table S9)
[12] = FLG wt, null vs wt grouping (Table S4)

COc1ccc(C(=O)c2ccccc2)c(O)c1 [Oxybenzone, (2-Hydroxy-4-methoxyphenyl)-phenylmethanone]
Expression of estrogen receptor 1, androgen receptor, and cytochrome P450 aromatase B [1]: decreased expression
Effect in mice [2]: affect fetal growth and sex ratio
Share of what was found in urine in the form of the parent compound, free and conjugated with glucuronic acid [3]: About 50%
Absorption rate constant (mean ± SD), adjusted for BMI, age and sex ([4]; FLG null (Table S7)): 0.22 ± 0.06 h⁻¹
Lag time (mean ± SD), adjusted for BMI, age and sex ([4]; FLG null (Table S7)): 0.14 ± 0.18 h
Excretion rate constant K (mean ± SD) ([4]; FLG null (Table S9)): 0.05 ± 0.02 h⁻¹
Lag time (mean±SD) [4, 9]: 0.07 ± 0.01 h
Absorption rate constant (mean±SD) [4, 9]: 0.23 ± 0.07 h⁻¹
Dermal absorption rate constant (mean ± SD) [4, 10]: 0.29 ± 0.08 h⁻¹
Lag time for dermal absorption (mean ± SD) [4, 10]: 0.10 ± 0.02 h
Volume of central compartment (mean ± SD) [4, 11]: 71.5 ± 32.4 L
Absorption rate constant (mean ± SD), adjusted for BMI, age and sex ([4]; FLG wt CNV20–22 (Table S7)): 0.20 ± 0.06 h⁻¹
Lag time (mean ± SD), adjusted for BMI, age and sex ([4]; FLG wt CNV20–22 (Table S7)): 0.04 ± 0.04 h
Excretion rate constant K (mean ± SD) ([4]; FLG wt CNV20–22 (Table S9)): 0.05 ± 0.01 h⁻¹
Volume of central compartment (mean ± SD) ([4]; FLG wt CNV20–22 (Table S9)): 81.5 ± 42.7 L
Lag time (mean±SD) ([4]; FLG wt CNV20–22 carriers): 0.04 ± 0.009 h
Absorption rate constant (mean±SD) ([4]; FLG wt CNV20–22 carriers): 0.22 ± 0.08 h⁻¹
Absorption rate constant (mean ± SD), adjusted for BMI, age and sex ([4]; FLG wt CNV23–24 (Table S7)): 0.13 ± 0.04 h⁻¹
Lag time (mean ± SD), adjusted for BMI, age and sex ([4]; FLG wt CNV23–24 (Table S7)): 0.13 ± 0.17 h
Excretion rate constant K (mean ± SD) ([4]; FLG wt CNV23–24 (Table S9)): 0.06 ± 0.04 h⁻¹
Volume of central compartment (mean ± SD) ([4]; FLG wt CNV23–24 (Table S9)): 103 ± 52.36 L
Lag time (mean±SD) ([4]; FLG wt CNV23–24 carriers): 0.23 ± 0.13 h
Absorption rate constant (mean±SD) ([4]; FLG wt CNV23–24 carriers): 0.13 ± .04 h⁻¹
Dermal absorption rate constant (mean ± SD) [4, 12]: 0.22 ± 0.09 h⁻¹
Lag time for dermal absorption (mean ± SD) [4, 12]: 0.13 ± 0.07 h
Mean dermal absorption rate constant higher for FLG null carriers than wt carriers with CNV23–24 ([4]; Table 2): 77%
Rate constant K21 (mean ± SD) ([4]; FLG null (Table S9)): 0.01 ± 0.006 h⁻¹
Rate constant K21 (mean ± SD) ([4]; FLG wt CNV20–22 (Table S9)): 0.01 ± 0.008 h⁻¹
Rate constant K21 (mean ± SD) ([4]; FLG wt CNV23–24 (Table S9)): 0.007 ± 0.003 h⁻¹
Rate constant K12 (mean ± SD) ([4]; FLG null (Table S9)): 0.31 ± 0.02 h⁻¹
Rate constant K12 (mean ± SD) ([4]; FLG wt CNV20–22 (Table S9)): 0.31 ± 0.02 h⁻¹
Rate constant K12 (mean ± SD) ([4]; FLG wt CNV23–24 (Table S9)): 0.32 ± 0.02 h⁻¹
Dermal absorption rate constant higher for FLG null compared with wt carriers ([4]; null vs wt grouping (Table S4)): 32%

c1cc2ccc3cccc4ccc(c1)c2c34 [Pyrene, pyrene]
Absorption rate constant (mean ± SD), adjusted for BMI, age and sex ([4]; FLG null (Table S7)): 0.23 ± 0.09 h⁻¹
Lag time (mean ± SD), adjusted for BMI, age and sex ([4]; FLG null (Table S7)): 0.89 ± 0.15 h
Excretion rate constant K (mean ± SD) ([4]; FLG null (Table S9)): 0.17 ± 0.02 h⁻¹
Lag time (mean±SD) [4, 9]: 0.91 ± 0.12 h
Absorption rate constant (mean±SD) [4, 9]: 0.16 ± 0.05 h⁻¹
Dermal absorption rate constant (mean ± SD) [4, 10]: 0.17 ± 0.06 h⁻¹
Lag time for dermal absorption (mean ± SD) [4, 10]: 0.88 ± 0.13 h
Volume of central compartment (mean ± SD) [4, 11]: 876 ± 344 L
Absorption rate constant (mean ± SD), adjusted for BMI, age and sex ([4]; FLG wt CNV20–22 (Table S7)): 0.23 ± 0.10 h⁻¹
Lag time (mean ± SD), adjusted for BMI, age and sex ([4]; FLG wt CNV20–22 (Table S7)): 1.06 ± 0.17 h
Excretion rate constant K (mean ± SD) ([4]; FLG wt CNV20–22 (Table S9)): 0.18 ± 0.04 h⁻¹
Volume of central compartment (mean ± SD) ([4]; FLG wt CNV20–22 (Table S9)): 954 ± 410 L
Lag time (mean±SD) ([4]; FLG wt CNV20–22 carriers): 1.06 ± 0.16 h
Absorption rate constant (mean±SD) ([4]; FLG wt CNV20–22 carriers): 0.14 ± 0.03 h⁻¹
Absorption rate constant (mean ± SD), adjusted for BMI, age and sex ([4]; FLG wt CNV23–24 (Table S7)): 0.14 ± 0.05 h⁻¹
Lag time (mean ± SD), adjusted for BMI, age and sex ([4]; FLG wt CNV23–24 (Table S7)): 1.34 ± 0.32 h
Excretion rate constant K (mean ± SD) ([4]; FLG wt CNV23–24 (Table S9)): 0.18 ± 0.02 h⁻¹
Volume of central compartment (mean ± SD) ([4]; FLG wt CNV23–24 (Table S9)): 1232 ± 541 L
Lag time (mean±SD) ([4]; FLG wt CNV23–24 carriers): 1.41 ± 0.29 h
Absorption rate constant (mean±SD) ([4]; FLG wt CNV23–24 carriers): 0.11 ± 0.03 h⁻¹
Dermal absorption rate constant (mean ± SD) [4, 12]: 0.15 ± 0.06 h⁻¹
Lag time for dermal absorption (mean ± SD) [4, 12]: 1.20 ± 0.25 h
Mean dermal absorption rate constant higher for FLG null carriers than wt carriers with CNV23–24 ([4]; Table 2): 45%
Rate constant K21 (mean ± SD) ([4]; FLG null (Table S9)): 0.02 ± 0.0008 h⁻¹
Rate constant K21 (mean ± SD) ([4]; FLG wt CNV20–22 (Table S9)): 0.02 ± 0.0006 h⁻¹
Rate constant K21 (mean ± SD) ([4]; FLG wt CNV23–24 (Table S9)): 0.02 ± 0.0005 h⁻¹
Rate constant K12 (mean ± SD) ([4]; FLG null (Table S9)): 0.12 ± 0.04 h⁻¹
Rate constant K12 (mean ± SD) ([4]; FLG wt CNV20–22 (Table S9)): 0.12 ± 0.03 h⁻¹
Rate constant K12 (mean ± SD) ([4]; FLG wt CNV23–24 (Table S9)): 0.11 ± 0.02 h⁻¹
tolerable daily intake (TDI) [5]: 0.03 mg/kg

Cc1cc(C)nc(Nc2ccccc2)n1 [Pyrimethanil, 4,6-dimethyl-N-phenyl-2-pyrimidinamine]
aryl hydrocarbon receptor activity [6]: aryl hydrocarbon receptor agonist
Share of the compound found in urine as OH-pyrimethanil [7]: 80%
Dermal absorption rate constant higher for FLG null compared with wt carriers ([4]; human, in vivo): 18%
Mean dermal absorption rate constant higher for FLG null carriers than wt carriers with CNV23–24 ([4]; human, in vivo): 50%
acute toxicity [8]: low acute toxicity
